Experimental data taken from US4536346A, “Aralkanamidophenyl compounds” (American Cyanamid Company, priority 1983, dated 1985).

target: T1, fatty acyl CoA: cholesterol acyl transferase (ACAT) (Rattus norvegicus, UniProt O70536); experiment: Inhibition of enzymatic esterification of cholesterol (ACAT) in rat adrenal supernatant containing the microsomal fraction; assay type: biochemical; conditions: final concentration of test compound 5.2 μg./ml., percent inhibition of the ACAT enzyme compared to control values
T1 construct: The supernatant, containing the microsomal fraction, served as the source of the cholesterol-esterifying enzyme; from tissue; host or cells: rat adrenals (1,000 x g supernatant containing the microsomal fraction)
T1 sequence (O70536 1-545): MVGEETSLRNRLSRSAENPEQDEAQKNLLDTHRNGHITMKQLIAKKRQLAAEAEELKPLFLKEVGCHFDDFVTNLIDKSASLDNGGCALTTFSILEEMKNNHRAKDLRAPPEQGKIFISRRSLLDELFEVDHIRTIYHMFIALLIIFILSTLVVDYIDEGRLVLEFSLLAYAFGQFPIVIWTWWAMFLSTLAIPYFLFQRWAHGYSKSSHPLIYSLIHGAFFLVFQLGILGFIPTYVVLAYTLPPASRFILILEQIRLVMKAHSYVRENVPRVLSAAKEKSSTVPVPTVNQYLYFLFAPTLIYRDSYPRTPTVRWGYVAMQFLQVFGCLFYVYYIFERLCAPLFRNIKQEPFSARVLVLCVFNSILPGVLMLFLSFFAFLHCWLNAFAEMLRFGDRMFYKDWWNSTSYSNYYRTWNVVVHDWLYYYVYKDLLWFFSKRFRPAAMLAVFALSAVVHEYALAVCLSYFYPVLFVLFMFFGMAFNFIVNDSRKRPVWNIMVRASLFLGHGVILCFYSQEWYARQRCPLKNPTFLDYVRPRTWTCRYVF
Protocol: The compounds of the present invention were tested for their ability to inhibit the enzymatic esterification of cholesterol according to the following procedure:
Rat adrenals were homogenized in 0.2M monobasic potassium phosphate buffer, pH 7.4, and centrifuged at 1,000 times gravity for 15 minutes at 5° C. The supernatant, containing the microsomal fraction, served as the source of the cholesterol-esterifying enzyme, fatty acyl CoA: cholesterol acyl transferase (ACAT). A mixture comprising 50 parts of adrenal supernatant, 10 parts of albumin (BSA) (50 mg./ml.), […], 3 parts of test compound, and 500 parts of buffer was pre-incubated at 37° C. for 10 minutes. After treatment with 20 parts of oleoyl CoA (^14 C-0.4 μCi), the mixture was incubated at 37° C. for 10 minutes. A control mixture, omitting the test compound, was prepared and treated in the same manner. The lipids from the incubation mixture were extracted into an organic solvent and separated by thin-layer chromatography. The cholesterol ester fraction was counted in a scintillation counter. This procedure is a modification of that described by Hashimoto, et al., Life Scie., 12 (Part II), 1-12 (1973).
The results of this test on representative compounds of this invention appear in Table I. The final concentration of the test compound was 5.2 μg./ml., and the effectiveness of the compound is expressed as percent inhibition of the ACAT enzyme compared to control values.

For `CCOC(=O)c1ccc(NC(=O)CC(c2ccc(C)cc2)c2ccc(C)cc2)cc1` [Ethyl 4'-[3,3-bis(4-methylphenyl)propionamido]benzoate], which inhibition at 5.2 µg/mL is on record?
Its inhibition at 5.2 µg/mL is 95%.

`CC(=O)c1ccc(NC(=O)CC(c2ccc(Cl)cc2)c2ccc(Cl)cc2)cc1` [N--(4-Acetylphenyl)-3,3-bis(p-chlorophenyl)propionamide] was tested. Which inhibition at 5.2 µg/mL did it give?
Its inhibition at 5.2 µg/mL is 95%.

Which inhibition at 5.2 µg/mL does the source give for `N#Cc1ccc(NC(=O)CC(c2ccc(Cl)cc2)c2ccc(Cl)cc2)cc1` [N--(4-Cyanophenyl)-3,3-bis(p-chlorophenyl)propionamide] here?
The inhibition at 5.2 µg/mL was 96%.

How did the inhibition at 5.2 µg/mL turn out when `O=C(CC(c1ccc(Cl)cc1)c1ccc(Cl)cc1)Nc1ccc(F)cc1` [N--(4-Fluorophenyl)-3,3-bis(p-chlorophenyl)propionamide] was run?
Its inhibition at 5.2 µg/mL is 67%.

For `Cc1ccc(NC(=O)CC(c2ccc(Cl)cc2)c2ccc(Cl)cc2)cc1` [N--(4-Tolyl)-3,3-bis(p-chlorophenyl)propionamide], which inhibition at 5.2 µg/mL is on record?
The inhibition at 5.2 µg/mL was 36%.

With `O=C(CC(c1ccc(Cl)cc1)c1ccc(Cl)cc1)Nc1ccc(C(F)(F)F)cc1` [N--(4-Trifluoromethylphenyl)-3,3-bis(p-chlorophenyl)propionamide] as the compound, how does the inhibition at 5.2 µg/mL read?
Its inhibition at 5.2 µg/mL is 35%.

With `COc1ccc(C(CC(=O)Nc2ccc(Br)cc2)c2ccc(OC)cc2)cc1` [N--(p-Bromophenyl)-3,3-bis(4-methoxyphenyl)propionamide] as the compound, how does the inhibition at 5.2 µg/mL read?
The inhibition at 5.2 µg/mL was 79%.

Which inhibition at 5.2 µg/mL does the source give for `COc1ccc(C(CC(=O)Nc2ccc(Cl)cc2)c2ccc(OC)cc2)cc1` [N--(p-Chlorophenyl)-3,3-bis(4-methoxyphenyl)propionamide] here?
Its inhibition at 5.2 µg/mL is 91%.

How did the inhibition at 5.2 µg/mL turn out when `Cc1ccc(C(CC(=O)Nc2ccc(Cl)cc2)c2ccc(C)cc2)cc1` [N--(p-Chlorophenyl)-3,3-bis(p-tolyl)propionamide] was run?
Its inhibition at 5.2 µg/mL is 89%.

Which inhibition at 5.2 µg/mL does the source give for `COc1ccc(C(CC(=O)Nc2ccc(C#N)cc2)c2ccc(OC)cc2)cc1` [N--(p-Cyanophenyl)-3,3-bis(4-methoxyphenyl)propionamide] here?
Its inhibition at 5.2 µg/mL is 94%.

How did the inhibition at 5.2 µg/mL turn out when `Cc1ccc(C(CC(=O)Nc2ccc(C#N)cc2)c2ccc(C)cc2)cc1` [N--(p-Cyanophenyl)-3,3-bis(p-tolyl)propionamide] was run?
Its inhibition at 5.2 µg/mL is 90%.

`COc1ccc(C(CC(=O)Nc2ccc(F)cc2)c2ccc(OC)cc2)cc1` [N--(p-Fluorophenyl)-3,3-bis(4-methoxyphenyl)propionamide] was tested. Which inhibition at 5.2 µg/mL did it give?
The inhibition at 5.2 µg/mL was 92%.

How did the inhibition at 5.2 µg/mL turn out when `Cc1ccc(C(CC(=O)Nc2ccc(F)cc2)c2ccc(C)cc2)cc1` [N--(p-Fluorophenyl)-3,3-bis(p-tolyl)propionamide] was run?
Its inhibition at 5.2 µg/mL is 92%.

Which inhibition at 5.2 µg/mL does the source give for `COc1ccc(NC(=O)CC(c2ccc(OC)cc2)c2ccc(OC)cc2)cc1` [N--(p-Methoxyphenyl)-3,3-bis(4-methoxyphenyl)propionamide] here?
Its inhibition at 5.2 µg/mL is 58%.

Which inhibition at 5.2 µg/mL does the source give for `COc1ccc(C(CC(=O)Nc2ccc([N+](=O)[O-])cc2)c2ccc(OC)cc2)cc1` [N--(p-Nitrophenyl)-3,3-bis(4-methoxyphenyl)propionamide] here?
The inhibition at 5.2 µg/mL was 94%.

Which inhibition at 5.2 µg/mL does the source give for `COc1ccc(C(CC(=O)Nc2ccc(C)cc2)c2ccc(OC)cc2)cc1` [N--(p-Tolyl)-3,3-bis(4-methoxyphenyl)propionamide] here?
The inhibition at 5.2 µg/mL was 97%.

With `Cc1ccc(NC(=O)CC(c2ccc(C)cc2)c2ccc(C)cc2)cc1` [N--(p-Tolyl)-3,3-bis(p-tolyl)propionamide] as the compound, how does the inhibition at 5.2 µg/mL read?
Its inhibition at 5.2 µg/mL is 66%.

`COc1ccc(C(CC(=O)Nc2ccc(C(F)(F)F)cc2)c2ccc(OC)cc2)cc1` [N--(p-Trifluoromethylphenyl)-3,3-bis(4-methoxyphenyl)propionamide] was tested. Which inhibition at 5.2 µg/mL did it give?
The inhibition at 5.2 µg/mL was 92%.

With `Cc1ccc(C(CC(=O)Nc2ccc(C(F)(F)F)cc2)c2ccc(C)cc2)cc1` [N--(p-Trifluoromethylphenyl)-3,3-bis(p-tolyl)propionamide] as the compound, how does the inhibition at 5.2 µg/mL read?
The inhibition at 5.2 µg/mL was 94%.

Which inhibition at 5.2 µg/mL does the source give for `COc1ccc(C(CC(=O)Nc2ccccc2)c2ccc(OC)cc2)cc1` [N--Phenyl-3,3-bis(4-methoxyphenyl)propionamide] here?
Its inhibition at 5.2 µg/mL is 91%.

Which inhibition at 5.2 µg/mL does the source give for `O=C(CC(c1ccc(Cl)cc1)c1ccc(Cl)cc1)Nc1ccccc1` [N--Phenyl-3,3-bis(p-chlorophenyl)propionamide] here?
The inhibition at 5.2 µg/mL was 50%.

For `Cc1ccc(C(CC(=O)Nc2ccccc2)c2ccc(C)cc2)cc1` [N--Phenyl-3,3-bis(p-tolyl)propionamide], which inhibition at 5.2 µg/mL is on record?
The inhibition at 5.2 µg/mL was 82%.

`CCOC(=O)c1ccc(NC(=O)C=C(c2ccccc2)c2ccccc2)cc1` [p-(3,3-Diphenylacrylamido)benzoic acid, ethyl ester] was tested. Which inhibition at 5.2 µg/mL did it give?
Its inhibition at 5.2 µg/mL is 40%.
